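Results reflect a 48-hour exposure of cells in 96-well plates to compound at five concentrations. At the GI50, growth is halved.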 The source made the active and inactive calls. Rule as the data show it: active = GI50 up to about 1.1 µM and inactive = higher.
What was measured:
Test in all cases: NCI anticancer screen, dose series, 48 h
KM-20L2 = system: KM-20L2
RXF 631 = system: RXF 631
DMS-273 = system: DMS-273
HOP-18 = system: HOP-18
DMS-114 = system: DMS-114
M19-MEL = system: M19-MEL
LXFL 529 = system: LXFL 529
XF498 = system: XF498
MDA-N = system: MDA-N

Measured: GI50

O=C1C(Br)=C[C@H]2C3C=CC(Br)(C3=O)[C@@H]12 (stereo partly specified)
inactive: KM-20L2 4.84 µM | RXF 631 14.4 µM | DMS-273 12.8 µM | HOP-18 49.4 µM | DMS-114 14 µM | M19-MEL 11.8 µM | LXFL 529 10.2 µM | XF498 17.5 µM

COc1cccc(NC(=O)C(=O)C(C(C)=O)c2nc3ccc(Cl)cc3nc2O)c1 (stereo unspecified)
inactive: KM-20L2 > 100 µM | RXF 631 > 100 µM | DMS-273 > 100 µM | HOP-18 > 100 µM | DMS-114 > 100 µM | M19-MEL > 100 µM | LXFL 529 > 100 µM

C=C(CN(C)C)C(=O)c1ccc(Oc2ccccc2)cc1
inactive: KM-20L2 12.2 µM | RXF 631 19.3 µM | MDA-N 3.02 µM | DMS-273 23.6 µM | HOP-18 6.87 µM | M19-MEL 4.25 µM | LXFL 529 2.2 µM | XF498 14.8 µM

CCOC(=O)C1=NC(c2ccccc2)(c2ccccc2)OC1=C(Cl)Cl
inactive: KM-20L2 49.3 µM | RXF 631 50.9 µM | HOP-18 > 100 µM | M19-MEL 29 µM | LXFL 529 65.5 µM

CCCCN(CCCC)CC(C(C)=O)C(c1ccccc1)c1c(O)c2ccccc2oc1=O (stereo unspecified)
inactive: KM-20L2 > 100 µM | RXF 631 > 100 µM | DMS-273 > 100 µM | HOP-18 > 100 µM | DMS-114 91 µM | M19-MEL > 100 µM | LXFL 529 > 100 µM | XF498 > 100 µM

CCN(CC)C(=O)COc1ccc(Br)cc1Br
inactive: KM-20L2 > 100 µM | RXF 631 > 100 µM | DMS-273 > 100 µM | HOP-18 > 100 µM | DMS-114 > 100 µM | M19-MEL > 100 µM | LXFL 529 > 100 µM

Cc1ccc(S(=O)(=O)SCc2ccccc2CSS(=O)(=O)c2ccc(C)cc2)cc1
inactive: KM-20L2 78.3 µM | RXF 631 > 100 µM | DMS-273 21.1 µM | HOP-18 > 100 µM | DMS-114 70.8 µM | M19-MEL 23.5 µM | LXFL 529 15.5 µM | XF498 24.2 µM

N#CCc1ccc(C(C#N)/C(CCCC(=O)Nc2cccc([N+](=O)[O-])c2)=N/NC(N)=S)cc1 (stereo unspecified)
inactive: KM-20L2 > 100 µM | RXF 631 86.5 µM | DMS-273 > 100 µM | HOP-18 > 100 µM | DMS-114 99.1 µM | LXFL 529 92 µM

O=C(NC(=O)c1cn(CCN(CCO)C(=O)NCCCCCCNC(=O)N(CCO)CCn2cc(C(=O)NC(=O)OCc3ccccc3)c(=O)[nH]c2=O)c(=O)[nH]c1=O)OCc1ccccc1
inactive: KM-20L2 > 100 µM | RXF 631 > 100 µM | DMS-273 > 100 µM | HOP-18 > 100 µM | DMS-114 > 100 µM | M19-MEL > 100 µM | XF498 > 100 µM

CC1(C)CCC[C@@]2(C)C1CCC1(C)C(CCc3ccoc3)/C(=C/OS(=O)(=O)O)CCC12 (stereo partly specified)
inactive: KM-20L2 38.2 µM | RXF 631 > 100 µM | DMS-273 > 100 µM | HOP-18 > 100 µM | DMS-114 34.6 µM | M19-MEL > 100 µM | LXFL 529 50 µM | XF498 > 100 µM

C=C(CN(C)C)C(=O)c1ccccc1
inactive: KM-20L2 19.1 µM | RXF 631 24.1 µM | MDA-N 14.2 µM | DMS-273 13.7 µM | HOP-18 3.52 µM | DMS-114 3.1 µM | M19-MEL 9.33 µM | LXFL 529 2.15 µM | XF498 15.4 µM

Reference: ChEMBL document CHEMBL1201862, “PubChem BioAssay data set” (2004)
